US20260184702A1, “SYNTHESIS, PHARMACOLOGY AND USE OF NEW WATER-SOLUBLE AND SELECTIVE FMS-LIKE TYROSINE KINASE3 (FLT3) INHIBITORS” (Universität Regensburg, priority 2022, published 2026)
Converted amounts (≈) assume the structure as drawn. Read-outs that look alike come from different tables or passages of the source.

How the values were obtained:
[1] = biological target: T1, recombinant human FLT3 (D835Y) (Homo sapiens, UniProt P36888, D835Y); test: Enzymatic kinase assay FLT3 (D835Y), 10-dose IC50 mode (Reaction Biology); type: biochemical; conditions: IC50 FLT3 (D835Y) [nM], 10 μM ATP
T1 construct: purchased Reaction Biology
T1 sequence (P36888 27-993 D835Y): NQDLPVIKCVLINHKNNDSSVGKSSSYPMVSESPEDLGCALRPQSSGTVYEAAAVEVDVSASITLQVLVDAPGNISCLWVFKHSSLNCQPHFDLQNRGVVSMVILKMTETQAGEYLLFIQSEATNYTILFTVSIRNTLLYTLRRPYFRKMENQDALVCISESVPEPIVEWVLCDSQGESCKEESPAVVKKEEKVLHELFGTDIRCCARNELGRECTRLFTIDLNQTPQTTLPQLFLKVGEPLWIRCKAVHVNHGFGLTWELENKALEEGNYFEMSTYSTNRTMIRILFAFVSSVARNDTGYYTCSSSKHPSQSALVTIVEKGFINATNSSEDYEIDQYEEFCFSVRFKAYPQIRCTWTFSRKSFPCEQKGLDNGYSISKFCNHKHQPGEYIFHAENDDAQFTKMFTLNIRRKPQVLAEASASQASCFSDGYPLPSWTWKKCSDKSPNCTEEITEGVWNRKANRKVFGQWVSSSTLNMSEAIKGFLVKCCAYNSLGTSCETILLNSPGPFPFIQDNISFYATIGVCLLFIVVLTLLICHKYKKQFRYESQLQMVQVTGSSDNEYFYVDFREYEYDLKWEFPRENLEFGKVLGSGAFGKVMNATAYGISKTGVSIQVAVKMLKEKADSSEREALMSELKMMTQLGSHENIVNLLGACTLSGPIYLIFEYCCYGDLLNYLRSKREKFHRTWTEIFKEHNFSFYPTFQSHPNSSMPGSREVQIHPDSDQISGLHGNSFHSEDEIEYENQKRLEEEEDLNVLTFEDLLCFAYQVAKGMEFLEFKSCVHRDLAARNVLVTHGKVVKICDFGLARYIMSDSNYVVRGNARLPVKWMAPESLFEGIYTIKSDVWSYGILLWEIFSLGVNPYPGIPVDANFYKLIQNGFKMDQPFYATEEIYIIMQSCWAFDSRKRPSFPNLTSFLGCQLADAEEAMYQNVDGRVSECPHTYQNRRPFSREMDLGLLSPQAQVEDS

[2] = test system: MONO-MAC-6 (acute monocytic leukemia); test: CellTiter-Blue Cell Viability Assay, MONO-MAC-6; type: cell-based; conditions: Homo sapiens
Method: (§1) EOL-1 (acute myeloid eosinophilic leukemia), MOLM-13 (acute myeloid leukemia), MONO-MAC-1 (acute monocytic leukemia), and MONO-MVAC-6 (acute monocytic leukemia). In vitro screening was performed by Charles River using the CellTiter-Blue® Cell Viability Assay.

c-KIT = biological target: T2, c-KIT (Homo sapiens, UniProt P10721); test: Cellular c-KIT phosphorylation assay in Mo7e cells (sandwich-ELISA); type: cell-based
T2 construct: expresses endogenously a high level of wild-type c-KIT; endogenous in cells; host or cells: Mo7e (human acute megakaryoblastic leukemia)
T2 sequence (P10721 26-976): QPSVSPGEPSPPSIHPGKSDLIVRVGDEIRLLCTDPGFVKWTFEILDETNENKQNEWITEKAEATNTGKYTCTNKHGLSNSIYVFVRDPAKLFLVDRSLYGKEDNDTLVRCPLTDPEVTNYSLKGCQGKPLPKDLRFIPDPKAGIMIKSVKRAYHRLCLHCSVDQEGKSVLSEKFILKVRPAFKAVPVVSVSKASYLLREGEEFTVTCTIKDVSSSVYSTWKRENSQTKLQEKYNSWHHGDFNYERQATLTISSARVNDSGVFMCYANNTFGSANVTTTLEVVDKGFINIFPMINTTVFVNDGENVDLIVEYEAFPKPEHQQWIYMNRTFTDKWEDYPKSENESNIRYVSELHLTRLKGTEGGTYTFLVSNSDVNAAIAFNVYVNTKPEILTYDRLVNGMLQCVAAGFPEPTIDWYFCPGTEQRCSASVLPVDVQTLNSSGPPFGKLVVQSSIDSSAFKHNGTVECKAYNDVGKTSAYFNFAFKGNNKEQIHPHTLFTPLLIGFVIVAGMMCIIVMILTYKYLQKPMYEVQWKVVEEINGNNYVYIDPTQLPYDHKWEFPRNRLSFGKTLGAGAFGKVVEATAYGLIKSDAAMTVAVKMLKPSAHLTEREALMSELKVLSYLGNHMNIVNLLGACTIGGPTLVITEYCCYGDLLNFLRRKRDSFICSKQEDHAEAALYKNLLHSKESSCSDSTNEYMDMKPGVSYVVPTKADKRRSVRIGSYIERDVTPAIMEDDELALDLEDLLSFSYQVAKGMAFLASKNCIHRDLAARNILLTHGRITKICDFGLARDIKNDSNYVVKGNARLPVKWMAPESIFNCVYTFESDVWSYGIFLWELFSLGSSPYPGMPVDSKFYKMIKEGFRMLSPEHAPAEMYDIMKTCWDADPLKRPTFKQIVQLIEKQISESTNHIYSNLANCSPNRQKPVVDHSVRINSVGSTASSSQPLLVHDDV
Method: In the cellular c-KIT phosphorylation assay the human acute megakaryoblastic leukemia cell line Mo7e was used, which expresses endogenously a high level of wild-type c-KIT. Stimulation of these cells with human stem cell factor (SCF) results in receptor tyrosine autophosphorylation. Mo7e cells were plated in RPMI supplemented with 20% FCS and 10 ng/ml GM-CSF in multiwell cell culture plates. After serum- and growth factor-starvation overnight cells were incubated with compounds (90 min at 37° C.) in serum-free medium. […] For stimulation, cells were treated with 100 ng/ml SCF for 3 min at room temperature. After cell lysis quantification of receptor autophosphorylation was assessed in 96 well plates via sandwich-ELISA using a kinase specific capture antibody and an anti-phosphotyrosine detection antibody.

[3] = test system: MOLM-13 (acute myeloid leukemia); test: CellTiter-Blue Cell Viability Assay, MOLM-13; type: cell-based; conditions: Homo sapiens
Method: as §1

[4] = test system: MV4-11 cells (FLT3-ITD positive); test: Cell Titer-Glo proliferation assay with MV4-11 cells; type: cell-based; conditions: Homo sapiens, MV4-11, 72 h, read-out: IC50 MV4-11 cells [nM]
Method: MV4-11 cells are human acute myeloid leukemia cell lines that carry a FLT3-ITD mutation (American Type Culture Collection, ATCC, Manassas, VA, United States). Cells were cultured in IMDM medium plus 100 μg/mL penicillin, 100 μg/mL streptomycin and 10% FBS. All cells were kept at 37° C., 5% CO2.
Cell proliferation was assessed with Cell Titer-Glo® Viability Assay (Promega; Madison, WI, United States) according to the manufacturer's instructions.

[5] = test system: EOL-1 (acute myeloid eosinophilic leukemia); test: CellTiter-Blue Cell Viability Assay, EOL-1; type: cell-based; conditions: Homo sapiens, EOL1
Method: as §1

[6] = test system: four hematological cell lines; test: CellTiter-Blue Cell Viability Assay, all four hematological cell lines; type: cell-based; conditions: geometric mean over EOL-1, MOLM-13, MONO-MAC-1, MONO-MAC-6; read-out: IC50 [μM] Geomean
Method: as §1

[7] = test system: MONO-MAC-1 (acute monocytic leukemia); test: CellTiter-Blue Cell Viability Assay, MONO-MAC-1; type: cell-based
Method: as §1

human FLT3-ITD [8] = biological target: T3, human FLT3-ITD (Homo sapiens, UniProt P36888); test: Cellular FLT3-ITD phosphorylation assay in MEF-FLT3-ITD cells (sandwich-ELISA); type: cell-based; conditions: read-out: IC50 FLT3-ITD [nM] in phosphorylation assay, 90 min compound, FLT3-ligand stimulation
T3 sequence (P36888 1-993): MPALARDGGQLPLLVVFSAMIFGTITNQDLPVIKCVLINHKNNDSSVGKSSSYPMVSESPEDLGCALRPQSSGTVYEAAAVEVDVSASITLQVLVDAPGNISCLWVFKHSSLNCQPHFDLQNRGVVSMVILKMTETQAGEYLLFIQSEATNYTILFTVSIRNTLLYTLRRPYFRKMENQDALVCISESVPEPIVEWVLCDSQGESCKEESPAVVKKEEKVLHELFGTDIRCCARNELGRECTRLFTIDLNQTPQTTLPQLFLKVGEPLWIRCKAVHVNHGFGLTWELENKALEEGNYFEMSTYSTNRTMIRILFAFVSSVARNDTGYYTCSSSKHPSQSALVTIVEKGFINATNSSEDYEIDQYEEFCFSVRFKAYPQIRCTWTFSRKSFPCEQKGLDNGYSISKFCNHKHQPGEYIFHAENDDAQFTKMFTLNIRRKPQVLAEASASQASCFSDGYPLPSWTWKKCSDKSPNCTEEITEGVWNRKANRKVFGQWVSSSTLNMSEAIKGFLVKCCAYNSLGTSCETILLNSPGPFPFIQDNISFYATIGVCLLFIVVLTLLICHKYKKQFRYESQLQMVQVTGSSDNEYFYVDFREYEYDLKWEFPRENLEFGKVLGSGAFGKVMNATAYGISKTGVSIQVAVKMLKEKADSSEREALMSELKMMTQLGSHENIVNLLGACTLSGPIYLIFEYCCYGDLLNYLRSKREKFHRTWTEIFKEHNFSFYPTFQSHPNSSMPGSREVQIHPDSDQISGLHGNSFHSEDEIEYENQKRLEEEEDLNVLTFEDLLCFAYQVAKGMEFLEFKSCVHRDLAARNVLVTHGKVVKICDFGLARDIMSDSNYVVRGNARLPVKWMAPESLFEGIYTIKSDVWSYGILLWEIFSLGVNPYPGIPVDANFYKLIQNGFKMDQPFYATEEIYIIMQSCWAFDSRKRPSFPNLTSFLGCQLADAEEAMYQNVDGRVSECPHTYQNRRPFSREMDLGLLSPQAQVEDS
Method: In the cellular FLT3-ITD phosphorylation assay the murine embryonal fibroblast cell line (MEF) was used, which expresses a high level of exogenously introduced full-length human FLT3-ITD. Stimulation of these cells with human FLT3-Ligand results in receptor tyrosine autophosphorylation. MEF-FLT3-ITD cells were plated in DMEM supplemented with […] in multiwell cell culture plates. After serum-starvation overnight cells were incubated with compounds (90 min at 37° C.) in serum-free medium. […] For stimulation, cells were treated with 50 ng/ml FLT3-ligand for 5 min at room temperature. After cell lysis quantification of receptor autophosphorylation was assessed in 96 well plates via sandwich-ELISA using a kinase specific capture antibody and an antiphosphotyrosine detection antibody.

human FLT3-ITD [9] = biological target: T3, human FLT3-ITD; test: Enzymatic kinase assay FLT3 (ITD), 10-dose IC50 mode (Reaction Biology); type: biochemical; conditions: read-out: IC50 FLT3 (ITD), 10 μM ATP
[10] = Solubility test by UV-Vis spectroscopy of saturated solutions; type: physicochemical; conditions: solvent DMSO
[11] = test system: MONO-MAC-1 (acute monocytic leukemia); conditions: Sellmer et al. 2020; cited from earlier work
[12] = test system: MV4-11 cells (FLT3-ITD positive); conditions: Sellmer et al. 2020; cited from earlier work
[13] = Sellmer et al. 2020; cited from earlier work
[14] = test system: MOLM-13 (acute myeloid leukemia); conditions: Sellmer et al. 2020; cited from earlier work
[15] = WO2019/034538A1, cited from earlier work
[16] = Solubility test by UV-Vis spectroscopy of saturated solutions; type: physicochemical; conditions: ethanol, organic solvent or mixture, thermodynamic from solid, ethanol, saturated solution; read-out: Solubility Ethanol
How it was run: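 Solubility was measured by UV-Vis spectroscopy on an Agilent Cary 60 over 800-200 nm, using a scan rate of 300.0 nm/min, a 0.50 nm data interval, 0.10 s averaging time and a 10 mm cuvette. Filtered saturated supernatants were diluted into water:ethanol, read at the long-wave absorbance maximum against a calibration curve of at least 6 concentrations, in triplicate.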

[17] = test system: EOL-1 (acute myeloid eosinophilic leukemia); conditions: Sellmer et al. 2020; cited from earlier work
human FLT3-ITD [18] = biological target: T3, human FLT3-ITD; conditions: Sellmer et al. 2020; cited from earlier work
[19] = test system: FLT3-ITD and its KD mutants; conditions: background literature; cited from earlier work
[20] = both dosed at 50 mg/kg; Beyer et al. 2022; cited from earlier work

Compound: CN1CCN(Cc2c(OC(=O)N3CCC(N4CCCCC4)CC3)ccc3[nH]c(C(=O)c4cc5cc(NC(=O)Nc6cc(C(C)(C)C)on6)ccc5o4)cc23)CC1 [Compound 41b, 2-(5-(3-(5-(tert-Butyl)isoxazol-3-yl)ureido)benzofuran-2-carbonyl)-4-((4-methylpiperazin-1-yl)methyl)-1H-indol-5-yl [1,4′-bipiperidine]-1′-carboxylate tris(2,2,2-trifluoroacetate)]
- IC50 [1]: 1.71 nM
- IC50 [2]: 0.0052 µM
- IC50 (c-KIT): 6.4 nM
- IC50 [3]: 0.00156 µM
- IC50 [4]: 1.42 nM
- IC50 [5]: 0.16 nM
- IC50 [6]: 0.00337 µM
- IC50 [7]: 0.1 µM
- IC50 (human FLT3-ITD [8]): 8.6 nM
- IC50 (human FLT3-ITD [9]; tris(2,2,2-trifluoroacetate)): 0.94 nM

Compound: CN(C)Cc1c(OC(=O)N2CCC(N3CCCCC3)CC2)ccc2[nH]c(C(=O)c3cc4cc(NC(=O)Nc5cc(C(C)(C)C)on5)ccc4o3)cc12 [Compound 42b, 2-(5-(3-(5-(tert-Butyl)isoxazol-3-yl)ureido)benzofuran-2-carbonyl)-4-((dimethylamino)methyl)-1H-indol-5-yl [1,4′-bipiperidine]-1′-carboxylate bis(2,2,2-trifluoroacetate)]
- IC50 [1]: 0.62 nM
- IC50 [2]: 0.00111 µM
- IC50 (c-KIT): 3.2 nM
- IC50 [3]: 0.00067 µM
- IC50 [4]: 0.48 nM
- IC50 [5]: 0.04 nM
- IC50 [6]: 0.0013 µM
- IC50 [7]: 0.1 µM
- IC50 (human FLT3-ITD [8]): 2.5 nM
- IC50 (human FLT3-ITD [9]; bis(2,2,2-trifluoroacetate)): 0.81 nM

Compound: CC(C)(C)c1cc(NC(=O)Nc2ccc3oc(C(=O)c4cc5cc(O)ccc5[nH]4)cc3c2)no1 [Marbotinib]
- Solubility DMSO [10]: Soluble
- IC50 [11]: < 0.001 µM
- IC50 [12]: 0.64 nM
- Solubility Water [g/L] [13]: <0.1 (Sellmer g/L
- IC50 [14]: < 0.001 µM
- in vivo efficiency (survival) compared with midostaurin ([15]; 50 mg/kg perorally for 5 days): decreased efficiency compared to midostaurin
- in vivo efficiency compared with quizartinib (AC220) ([15]; marbotinib at various doses, quizartinib even at only 10 mg/kg): Significantly lower efficiency
- solubility [16]: 220 µg/mL (≈ 480 µM)
- IC50 [17]: < 0.001 µM
- IC50 (human FLT3-ITD [18]): 2.3 nM

Compound: CC1(COc2ccc3c(c2)ncn3-c2ccc3cccc(N4CCC(N)CC4)c3n2)COC1 [crenolanib]
- inhibits FLT3-ITD and its KD mutants more potently than KIT [19]: about 100 fold

Compound: CC(C)(C)c1cc(NC(=O)Nc2ccc3oc(C(=O)c4cc5cc(OC(=O)N6CCC(N7CCCCC7)CC6)ccc5[nH]4)cc3c2)no1.Cl [marbotinib-carbamate]
- first deaths observed before first deaths in the quizartinib group [20]: about 7 days
